Laboratory results reported in patent US9920074B2 (ACEA BIOSCIENCES INC., priority 2013, dated 2018).
Entries after “also recorded” stand apart in the source; their conditions may differ.

Key:
Type in all cases: cell-based
[1] = system: Stat5 phosphorylation in NK-92 cells; experiment: Western blotting assay for Stat5; settings: NK92, 1 hour, IL-2 stimulation, read-out: Stat5 inhibition
In short: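 NK-92 cells, maintained with IL-2, were pre-treated with compound for 1 h, then stimulated with IL-2 for 15 min. Lysates were western blotted for phospho- and total Jak3 and Stat5. IC50 came from densitometry of phospho-band intensity.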

[2] = biological target: T1, Jak3 phosphorylation in NK-92 cells (Homo sapiens, UniProt P52333); experiment: Western blotting assay for Jak3; settings: 1 hour, IL-2 stimulation, read-out: Jak3 inhibition
T1 construct: endogenous in cells; host or cells: NK-92 cells (ATCC)
T1 sequence (P52333 1-1124): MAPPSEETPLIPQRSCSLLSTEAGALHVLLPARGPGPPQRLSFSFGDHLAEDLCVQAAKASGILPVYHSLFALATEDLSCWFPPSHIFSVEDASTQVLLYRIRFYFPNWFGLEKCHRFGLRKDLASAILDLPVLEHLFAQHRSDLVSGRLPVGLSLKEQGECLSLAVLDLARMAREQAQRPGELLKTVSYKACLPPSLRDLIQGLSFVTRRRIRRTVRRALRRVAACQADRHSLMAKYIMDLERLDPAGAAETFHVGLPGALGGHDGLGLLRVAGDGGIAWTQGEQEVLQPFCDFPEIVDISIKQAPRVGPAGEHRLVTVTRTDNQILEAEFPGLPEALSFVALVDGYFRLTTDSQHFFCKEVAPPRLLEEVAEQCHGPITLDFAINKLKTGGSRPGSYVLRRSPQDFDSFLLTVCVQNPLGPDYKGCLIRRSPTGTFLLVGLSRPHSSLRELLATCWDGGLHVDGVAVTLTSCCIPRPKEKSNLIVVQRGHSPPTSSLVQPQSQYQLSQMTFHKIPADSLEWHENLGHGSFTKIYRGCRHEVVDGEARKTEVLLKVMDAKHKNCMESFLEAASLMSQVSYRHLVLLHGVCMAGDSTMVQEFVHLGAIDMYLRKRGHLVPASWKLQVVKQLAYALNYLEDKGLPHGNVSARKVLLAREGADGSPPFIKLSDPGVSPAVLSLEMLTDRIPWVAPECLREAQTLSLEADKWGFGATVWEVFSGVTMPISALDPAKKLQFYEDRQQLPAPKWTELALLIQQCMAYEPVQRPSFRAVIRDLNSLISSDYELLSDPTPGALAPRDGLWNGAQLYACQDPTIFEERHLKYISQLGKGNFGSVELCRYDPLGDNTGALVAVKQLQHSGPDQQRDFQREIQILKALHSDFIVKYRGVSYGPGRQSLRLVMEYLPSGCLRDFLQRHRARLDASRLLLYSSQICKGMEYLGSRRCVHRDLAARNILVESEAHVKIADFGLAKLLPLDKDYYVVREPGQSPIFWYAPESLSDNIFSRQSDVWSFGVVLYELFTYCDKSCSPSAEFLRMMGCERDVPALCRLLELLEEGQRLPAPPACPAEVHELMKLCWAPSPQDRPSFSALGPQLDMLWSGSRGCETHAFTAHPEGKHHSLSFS
Experimental: All cell lines were obtained from the American Type Culture Collection and were maintained at 37° C. with 5% CO2. Ramos cell line was maintained in media supplemented with 10% fetal bovine serum, penicillin (100 units/mL) and streptomycin (100 μg/mL). NK-92 cell line was maintained in media supplemented with 10% fetal bovine serum and 10% horse serum, penicillin (100 units/mL) and streptomycin (100 μg/mL), IL-2 10 ng/mL. Goat F(ab′)2 Anti-Human IgM-UNLB was obtained from SouthernBiotech. IL-2 was obtained from Peprotech.
NK-92 cells were treated with compounds at the dosed indicated for 1 hour in incubator, followed by the IL-2 stimulation for 15 minutes. Cells were then collected and lysed to prepare the cellular extraction. Western blots were performed on cell lysate using Phospho-Jak3, Jak3, Phospho-Stat5, Stat5 antibodies (Cell Signaling Technology). The intensity of blotting band was acquired using Image Lab (Bio-Rad) software, and the IC50 of target was generated with GraphPad Prism.

[3] = biological target: T2, Btk (Tyr223) phosphorylation in Ramos cells (Homo sapiens, UniProt Q06187); experiment: Western blotting assay for Btk (Example 73); settings: 45 min, 6 μg/mL anti-IgM, read-out: Btk Inhibition
T2 construct: endogenous in cells; host or cells: Ramos cells (ATCC)
In short: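 Ramos cells pre-treated with compound for 45 min at room temperature, then stimulated with 6 μg/mL anti-IgM for 30 min and lysed. Phospho-Btk (Tyr223) measured by Western blot band densitometry; IC50 fitted by non-linear regression.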

[4] = biological target: T3, Btk phosphorylation in Ramos cells (Homo sapiens, UniProt Q06187); experiment: Pulse chase western blotting assay for irreversibility / binding property; settings: 100 nM for 45 mins, monitored 4, 6 and 8 h post removal
T3 construct: endogenous in cells; host or cells: Ramos cells (ATCC)
Experimental: Ramos cells were treated with Compound I-1 at 100 nM for 45 min. Cells were then re-suspended in compound free media and stimulated with 6 μg/ml IgM at 0, 4, 6 or 8 hours after compound removal. Cells were then lysed after 30 mm IgM stimulation. West blotting analysis were then performed.
Ramos cells were treated with Compounds at 100 nM for 45 min. Cells were then re-suspended in compound free media and stimulated with 6 μg/ml anti-IgM at 0, 4, 6 or 8 hours after compound removal. Cells were then lysed after 30 mm anti-IgM stimulation. Western blotting analysis was then performed.

[5] = biological target: T2, Btk (Tyr223) phosphorylation in Ramos cells; experiment: Btk Tyr223 phosphorylation inhibition, western blotting assay (Example 72)
Experimental: Ramos cell line was obtained from the American Type Culture Collection and was maintained at 37° C. with 5% CO2, in media supplemented with 10% fetal bovine serum, penicillin (100 units/mL) and streptomycin (100 μg/mL), Goat F(ab′)2 Anti-Human IgM-UNLB was obtained from SouthernBiotech.
Ramos cells were treated with compounds at indicated doses for 45 min at room temperature, followed by stimulation of 12 μg/mL of IgM for 30 min, and then lysed. Western blots were performed on the cell lysate using Phospho-Btk (Tyr223), Phospho-Btk (Tyr551), Btk, Phospho-PLCγ2 (Tyr1217), PLCγ2, Phospho-p44/42 MAPK (Erk1/2) (Thr202/Tyr204) and p44/42 MAPK (Erk1/2) antibodies (Cell Signaling Technology). The density of blotting band was acquired using ImageJ software, and the IC50 of Btk (Tyr223) phosphorylation was fitted using a non-linear regression model by GraphPad Prism version 4.0.

[6] = biological target: T4, free Btk protein from Ramos cells (Homo sapiens, UniProt Q06187); experiment: Btk target site occupancy ELISA assay; settings: 1 h, ELISA, read-out: Btk Occupancy Assay (IC50)
T4 construct: endogenous in cells; host or cells: Ramos cells (ATCC)
Experimental: (§1) Ramos cells were treated with Compound I-1 at indicated concentrations for 1 h, followed by stimulation with 6 μg/mL of IgM for 30 mm, and then lysed. Lysates were incubated with Compound I-21 (biotin labeled) at a final concentration of 1 μM in a PBS, 0.05% Tween-20, 1% BSA solution while shaking for 1 h at room temperature. Samples were transferred to a streptavidin-coated 96-well ELISA plate and mixed while shaking for 1 h at room temperature. The Btk antibody (BD 611116, 1:1000 dilution in PBS+0.05% Tween-20+0.5% BSA) was then applied and incubated for 1 h at room temperature. After wash, goat anti-mouse-HRP (Pierce 31432, 1:1000 dilution in PBS+0.05% Tween-20+0.5% BSA) was added and incubated for 1 h at room temperature. The ELISA was developed with addition of tetramethyl benzidine (TMB) followed by Stop Solution and read at OD 450 nm.
as §1, with “Compounds” for “Compound I-1”, “anti-IgM” for “IgM”, “diluted” for “dilution”, “tetramethylbenzidine” for “tetramethyl benzidine”

T2 sequence (Q06187 whole entry): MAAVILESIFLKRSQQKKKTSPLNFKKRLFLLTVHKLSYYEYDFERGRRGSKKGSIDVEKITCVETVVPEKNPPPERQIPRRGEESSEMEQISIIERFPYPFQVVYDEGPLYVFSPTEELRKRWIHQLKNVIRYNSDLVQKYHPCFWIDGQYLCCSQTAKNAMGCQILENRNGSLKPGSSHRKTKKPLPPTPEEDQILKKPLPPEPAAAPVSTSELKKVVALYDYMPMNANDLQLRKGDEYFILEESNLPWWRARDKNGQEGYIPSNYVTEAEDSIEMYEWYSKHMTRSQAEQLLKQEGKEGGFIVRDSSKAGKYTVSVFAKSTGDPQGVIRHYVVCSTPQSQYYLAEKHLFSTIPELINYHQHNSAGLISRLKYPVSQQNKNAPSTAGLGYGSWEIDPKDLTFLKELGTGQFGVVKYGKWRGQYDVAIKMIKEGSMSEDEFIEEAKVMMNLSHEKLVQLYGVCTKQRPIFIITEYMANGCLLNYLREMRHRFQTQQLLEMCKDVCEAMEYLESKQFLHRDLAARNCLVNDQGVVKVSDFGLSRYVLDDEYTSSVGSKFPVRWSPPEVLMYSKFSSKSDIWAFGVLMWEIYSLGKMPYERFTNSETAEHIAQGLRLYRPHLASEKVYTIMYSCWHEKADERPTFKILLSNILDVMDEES
T3 sequence (Q06187 whole entry): as above
T4 sequence (Q06187 whole entry): as above

For `C=CC(=O)Nc1cccc(Oc2nc(Nc3ccc(N4CCN(C)CC4)c(F)c3)ncc2OC)c1` [Compound I-2, N-(3-(2-(3-fluoro-4-(4-methylpiperazin-1-yl)phenylamino)-5-methoxypyrimidin-4-yloxy)phenyl) acrylamide], the IC50 [1] was 200 to 400 nM, the IC50 [2] was 200 to 400 nM and the IC50 [3] was ≤ 10 nM. For the same compound, the “inhibition of BTK phosphorylation after compound removal (irreversibility)” value [4] was “remains inhibited up to 8 his; also recorded: long term effect of the inhibition was observed after compounds removal up to 8 hours; also recorded: remains inhibited up to 8 hrs; also recorded: irreversibly inhibited the BTK phosphorylation; also recorded: inhibited the Btk phosphorylation in Ramos cells after 8 hours of removal”, the IC50 ([5]; Btk Tyr223 phosphorylation, 45 min, 12 μg/mL IgM, read-out: BTK Inhibition) was < 10 nM and the IC50 ([5]; treated 45 mins, read-out: inhibition IC50 of the phosphorylation of BTK protein) was 5 nM. The “reduction of the Btk Tyr223 phosphorylation in Ramos cells” value ([5]; western blot) was “reduction of the Btk Tyr223 phosphorylation”.
`C=CC(=O)Nc1cccc(Oc2nc(Nc3ccc(N4CCN(CCOC)CC4)cc3)ncc2OC)c1` [Compound I-25a, N-(3-(5-methoxy-2-(4-(4-(2-methoxyethyl)piperazin-1-yl)phenylamino)pyrimidin-4-yloxy)phenyl)acrylamide] was tested, and the IC50 [1] was ≥ 400 nM, the IC50 [2] was ≥ 400 nM and the IC50 [3] was ≤ 10 nM. For the same compound, the IC50 [6] was ≤ 10 nM.
